Among the data in patent publication US12077537B2 (Gilead Sciences, Inc., priority 2020, dated 2024) are EC50 values, retold here.

By EC50 is commonly meant the concentration needed to bring the measured effect to its halfway point.

The subject of this assay is HIV-IIIb. Kind of assay: Antiviral assay in MT4 cells. It is filed as cell-based. The conditions noted are these: Human immunodeficiency virus 1, MT4, 120 h; MT-4 cells mixed with HIV-IIIb at m.o.i. 0.003; 5 days at 37° C.; CellTiter-Glo luminescence; 50% decrease in signal, a measure of HIV-1 replication. As to the method:
Antiviral Assay in MT4 Cells For the antiviral assay, 40 μL of a concentration required to achieve a final effective 1× test concentration of 3-fold serially diluted compound in culture medium with 10% FBS was added to each well of a 384-well plate (10 concentrations) in quadruplicate. MT-4 cells were next mixed with HIV-IIIb at an m.o.i of 0.003 for 1 hour, after which time 35 μL of virus/cell mixture (2000 cells) was immediately added to each well containing 40 μL of diluted compound. The plates were then incubated at 37° C. for 5 days. After 5 days of incubation, 25 μl of 2× concentrated CellTiter-Glom Reagent (catalog #G7571, Promega Biosciences, Inc., Madison, WI) was added to each well containing MT-4 cells. Cell lysis was carried out by incubating at room temperature for 10 min and then chemiluminescence was read.
(In ATP-based viability assays light output follows the ATP content of the culture.)

The compound `Cn1nc(N)c2cccc(-c3cc4sc(N5CC(C)(O)C5)nc4nc3[C@H](Cc3cc(F)cc(F)c3)NC(=O)Cn3nc(C(F)(F)F)c4c3C(F)(F)[C@@H]3C[C@H]43)c21` [Compound 58, N—((S)-1-(6-(3-amino-1-methyl-1H-indazol-7-yl)-2-(3-hydroxy-3-methylazetidin-1-yl)thiazolo[4,5-b]pyridin-5-yl)-2-(3,5-difluorophenyl)ethyl)-2-((3bS,4aR)-5,5-difluoro-3-(trifluoromethyl)-3b,4,4a,5-tetrahydro-1H-cyclopropa[3,4]cyclopenta[1,2-c]pyrazol-1-yl)acetamide] showed an EC50 of 14.7 nM. The figure for `CC1(O)CN(c2nc3nc([C@H](Cc4cc(F)cc(F)c4)NC(=O)Cn4nc(C(F)(F)F)c5c4C(F)(F)[C@@H]4C[C@H]54)c(-c4cccc5c4CNC5=O)cc3s2)C1` [Compound 39, 2-((3bS,4aR)-5,5-difluoro-3-(trifluoromethyl)-3b,4,4a,5-tetrahydro-1H-cyclopropa[3,4]cyclopenta[1,2-c]pyrazol-1-yl)-N—((S)-2-(3,5-difluorophenyl)-1-(2-(3-hydroxy-3-methylazetidin-1-yl)-6-(1-oxoisoindolin-4-yl)thiazolo[4,5-b]pyridin-5-yl)ethyl)acetamide] is 14.6 nM; for `Cc1c(-c2cc3[nH]c(-c4ccccc4)cc3nc2[C@H](Cc2cc(F)cc(F)c2)NC(=O)Cn2nc(C(F)(F)F)c3c2C(F)(F)[C@@H]2C[C@H]32)ccc2n[nH]c(=O)n12` [Example 120, 2-((3bS,4aR)-5,5-difluoro-3-(trifluoromethyl)-3b,4,4a,5-tetrahydro-1H-cyclopropa[3,4]cyclopenta[1,2-c]pyrazol-1-yl)-N—((S)-2-(3,5-difluorophenyl)-1-(6-(5-methyl-3-oxo-2,3-dihydro-[1,2,4]triazolo[4,3-a]pyridin-6-yl)-2-phenyl-1H-pyrrolo[3,2-b]pyridin-5-yl)ethyl)acetamide] it is 294 nM; for `Cn1nc(NS(C)(=O)=O)c2c(Cl)ccc(-c3cc4[nH]c(C5CC5)nc4nc3[C@H](Cc3cc(F)cc(F)c3)NC(=O)Cn3nc(C(F)(F)F)c4c3C(F)(F)[C@@H]3C[C@H]43)c21` [Example 96, N—((S)-1-(6-(4-chloro-1-methyl-3-(methylsulfonamido)-1H-indazol-7-yl)-2-cyclopropyl-1H-imidazo[4,5-b]pyridin-5-yl)-2-(3,5-difluorophenyl)ethyl)-2-((3bS,4aR)-5,5-difluoro-3-(trifluoromethyl)-3b,4,4a,5-tetrahydro-1H-cyclopropa[3,4]cyclopenta[1,2-c]pyrazol-1-yl)acetamide] it is 3.9 nM. The figure for `Cc1c(-c2cc3sc(N4CC(C)(O)C4)nc3nc2[C@H](Cc2cc(F)cc(F)c2)NC(=O)Cn2nc(C(F)(F)F)c3c2C(F)(F)[C@@H]2C[C@H]32)ccc2n[nH]c(=O)n12` [Compound 49, 2-((3bS,4aR)-5,5-difluoro-3-(trifluoromethyl)-3b,4,4a,5-tetrahydro-1H-cyclopropa[3,4]cyclopenta[1,2-c]pyrazol-1-yl)-N—((S)-2-(3,5-difluorophenyl)-1-(2-(3-hydroxy-3-methylazetidin-1-yl)-6-(5-methyl-3-oxo-2,3-dihydro-[1,2,4]triazolo[4,3-a]pyridin-6-yl)thiazolo[4,5-b]pyridin-5-yl)ethyl)acetamide] is 31.7 nM; for `CC1CN(c2nc3nc([C@H](Cc4cc(F)cc(F)c4)NC(=O)Cn4nc(C(F)(F)F)c5c4C(F)(F)[C@@H]4C[C@H]54)c(-c4ccc(F)c(C(N)=O)c4)cc3s2)CC(C)N1C1COC1` (stereo partly drawn) [Compound 30, 5-(5-((S)-1-(2-((3bS,4aR)-5,5-difluoro-3-(trifluoromethyl)-3b,4,4a,5-tetrahydro-1H-cyclopropa[3,4]cyclopenta[1,2-c]pyrazol-1-yl)acetamido)-2-(3,5-difluorophenyl)ethyl)-2-(3,5-dimethyl-4-(oxetan-3-yl)piperazin-1-yl)thiazolo[4,5-b]pyridin-6-yl)-2-fluorobenzamide] it is 47.3 nM; for `CCN1CCN(c2nc3nc([C@H](Cc4cc(F)cc(F)c4)NC(=O)Cn4nc(C(F)(F)F)c5c4C(F)(F)[C@@H]4C[C@H]54)c(-c4cccc5c(NS(C)(=O)=O)nn(C)c45)cc3s2)CC1` [Example 68, 2-((3bS,4aR)-5,5-difluoro-3-(trifluoromethyl)-3b,4,4a,5-tetrahydro-1H-cyclopropa[3,4]cyclopenta[1,2-c]pyrazol-1-yl)-N—((S)-2-(3,5-difluorophenyl)-1-(2-(4-ethylpiperazin-1-yl)-6-(1-methyl-3-(methylsulfonamido)-1H-indazol-7-yl)thiazolo[4,5-b]pyridin-5-yl)ethyl)acetamide] it is 6.7 nM. For `NC(=O)c1cc(-c2cc3sc(N4CCC5(CC4)CNC(=O)O5)nc3nc2[C@H](Cc2cc(F)cc(F)c2)NC(=O)Cn2nc(C(F)(F)F)c3c2C(F)(F)[C@@H]2C[C@H]32)ccc1F` [Compound 29, 5-(5-((S)-1-(2-((3bS,4aR)-5,5-difluoro-3-(trifluoromethyl)-3b,4,4a,5-tetrahydro-1H-cyclopropa[3,4]cyclopenta[1,2-c]pyrazol-1-yl)acetamido)-2-(3,5-difluorophenyl)ethyl)-2-(2-oxo-1-oxa-3,8-diazaspiro[4.5]decan-8-yl)thiazolo[4,5-b]pyridin-6-yl)-2-fluorobenzamide], a half-maximal effect (EC50) was put at 121 nM.

With `COCCOCCNc1nc2nc([C@H](Cc3cc(F)cc(F)c3)NC(=O)Cn3nc(C(F)F)c4c3C(F)(F)CCC4(F)F)c(-c3ccc(F)c(C(N)=O)c3)cc2s1` [Compound 4, (S)-5-(5-(1-(2-(3-(difluoromethyl)-4,4,7,7-tetrafluoro-4,5,6,7-tetrahydro-1H-indazol-1-yl)acetamido)-2-(3,5-difluorophenyl)ethyl)-2-((2-(2-methoxyethoxy)ethyl)amino)thiazolo[4,5-b]pyridin-6-yl)-2-fluorobenzamide], the midpoint of the response, the EC50, lay at 154 nM. The figure for `NC(=O)c1cc(-c2cc3sc(C#Cc4ccc(-c5c[nH]c([C@@H]6CCCN6)n5)cc4)nc3nc2[C@H](Cc2cc(F)cc(F)c2)NC(=O)Cn2nc(C(F)F)c3c2C(F)(F)CCC3(F)F)ccc1F` [Compound 138, 5-(5-((S)-1-(2-(3-(difluoromethyl)-4,4,7,7-tetrafluoro-4,5,6,7-tetrahydro-1H-indazol-1-yl)acetamido)-2-(3,5-difluorophenyl)ethyl)-2-((4-(2-((S)-pyrrolidin-2-yl)-1H-imidazol-4-yl)phenyl)ethynyl)thiazolo[4,5-b]pyridin-6-yl)-2-fluorobenzamide] is 112 nM; for `NC(=O)c1nc2nc(C(Cc3cc(F)cc(F)c3)NC(=O)Cn3nc(C(F)(F)F)c4c3C(F)(F)[C@@H]3C[C@H]43)c(-c3ccc(F)c(C(N)=O)c3)cc2s1` (stereo partly drawn) [Example 119, 6-(3-carbamoyl-4-fluorophenyl)-5-(1-(2-((3bS,4aR)-5,5-difluoro-3-(trifluoromethyl)-3b,4,4a,5-tetrahydro-TH-cyclopropa[3,4]cyclopenta[1,2-c]pyrazol-1-yl)acetamido)-2-(3,5-difluorophenyl)ethyl)thiazolo[4,5-b]pyridine-2-carboxamide] it is 72 nM; for `Cn1cnc(-c2nc3nc(C(Cc4cc(F)cc(F)c4)NC(=O)Cn4nc(C(F)(F)F)c5c4C(F)(F)[C@@H]4C[C@H]54)c(-c4cccc5c(NS(C)(=O)=O)nn(C)c45)cc3s2)c1` (stereo partly drawn) [Compound 134, 2-((3bS,4aR)-5,5-difluoro-3-(trifluoromethyl)-3b,4,4a,5-tetrahydro-1H-cyclopropa[3,4]cyclopenta[1,2-c]pyrazol-1-yl)-N-(2-(3,5-difluorophenyl)-1-(2-(1-methyl-1H-imidazol-4-yl)-6-(1-methyl-3-(methylsulfonamido)-1H-indazol-7-yl)thiazolo[4,5-b]pyridin-5-yl)ethyl)acetamide] it is 10.2 nM. In turn, `Cn1nc(NS(C)(=O)=O)c2cccc(-c3cc4sc(N5CCC(C)(N)CC5)nc4nc3C(Cc3cc(F)cc(F)c3)NC(=O)Cn3nc(C(F)(F)F)c4c3C(F)(F)[C@@H]3C[C@H]43)c21` (stereo partly drawn) [Example 126, N-(1-(2-(4-amino-4-methylpiperidin-1-yl)-6-(1-methyl-3-(methylsulfonamido)-1H-indazol-7-yl)thiazolo[4,5-b]pyridin-5-yl)-2-(3,5-difluorophenyl)ethyl)-2-((3bS,4aR)-5,5-difluoro-3-(trifluoromethyl)-3b,4,4a,5-tetrahydro-TH-cyclopropa[3,4]cyclopenta[1,2-c]pyrazol-1-yl)acetamide] had an EC50 of 33.8 nM. The figure for `CC1(O)CN(c2nc3nc([C@H](Cc4cc(F)cc(F)c4)NC(=O)Cn4nc(C(F)(F)F)c5c4C(F)(F)[C@@H]4C[C@H]54)c(-c4ccc(F)c(C(N)=O)c4)cc3s2)C1` [Compound 32, 5-(5-((S)-1-(2-((3bS,4aR)-5,5-difluoro-3-(trifluoromethyl)-3b,4,4a,5-tetrahydro-1H-cyclopropa[3,4]cyclopenta[1,2-c]pyrazol-1-yl)acetamido)-2-(3,5-difluorophenyl)ethyl)-2-(3-hydroxy-3-methylazetidin-1-yl)thiazolo[4,5-b]pyridin-6-yl)-2-fluorobenzamide] is 60.6 nM; for `NC(=O)c1cc(-c2cc3sc(O)nc3nc2[C@H](Cc2cc(F)cc(F)c2)NC(=O)Cn2nc(C(F)F)c3c2C(F)(F)CCC3(F)F)ccc1F` [Compound 15-1, (S)-5-(5-(1-(2-(3-(difluoromethyl)-4,4,7,7-tetrafluoro-4,5,6,7-tetrahydro-1H-indazol-1-yl)acetamido)-2-(3,5-difluorophenyl)ethyl)-2-hydroxythiazolo[4,5-b]pyridin-6-yl)-2-fluorobenzamide] it is 318 nM.
